pIC50: −log10 of the molar value. Like-named read-outs stand apart in the source and are kept apart here.
How the values were obtained:
rabbit aortic rings = test: Assay B: In Vitro Vascular Smooth Muscle Response for AII (antagonist activity in rabbit aortic rings); format: cell-based; details: Oryctolagus cuniculus, test antagonist at 10^-5 M, AII contraction, read-out: Assay B pA2 (converted)
Procedure: Assay B: In Vitro Vascular Smooth Muscle-Response for AII
The compounds of the invention were tested for antagonist activity in rabbit aortic rings. Male New Zealand white rabbits (2-2.5 kg) were sacrificed using an overdose of pentobarbital and exsanguinated via the carotid arteries. The thoracic aorta was removed, cleaned of adherent fat and connective tissue and then cut into 3-mm ring segments. The endothelium was removed from the rings by gently sliding a rolled-up piece of filter paper into the vessel lumen. The rings were then mounted in a water-jacketed tissue bath, maintained at 37° C., between moveable and fixed ends of a stainless steel wire with the moveable end attached to an FT03 Grass transducer coupled to a Model 7D Grass Polygraph for recording isometric force responses. The bath was filled with 20 ml of oxygenated (95% oxygen/5% carbon dioxide) Krebs solution of the following composition (mM): 130 NaCl, 15 NaHCO3, […], 1.2 NaH2PO4, 1.2 MgSO4, 2.5 CaCl2, and 11.4 glucose. The preparations were equilibrated for one hour before approximately one gram of passive tension was placed on the rings. Angiotensin II concentration-response curves were then recorded (3×10^−10 to 1×10^−5 M). Each concentration of AII was allowed to elicit its maximal contraction, and then AII was washed out repeatedly for 30 minutes before rechallenging with a higher concentration of AII. Aorta rings were exposed to the test antagonist at 10^−5 M for 5 minutes before challenging with AII. Adjacent segments of the same aorta ring were used for all concentration-response curves in the presence or absence of the test antagonist. The effectiveness of the test compound was expressed in terms of pA2 values and were calculated according to H. O. Schild [Br. J. Pharmacol. Chemother., 2,189-206 (1947)]. The PA2 value is the concentration of the antagonist which increases the EC50 value for AII by a factor of two. Each test antagonist was evaluated in aorta rings from two rabbits.

pressor response to AII = test: Assay C: In Vivo Intragastric Pressor Assay Response for AII Antagonists; parameters: species or system rat; details: for Assay C Duration: Dose: 3 mg/kg (i.g.), Sprague-Dawley rats, AII challenges up to 180 minutes after gavage; for inhibition in vivo at 3 mg/kg: Rattus norvegicus, po
Procedure: Assay C: In Vivo Intragastric Pressor Assay Response for AII Antagonists
Male Sprague-Dawley rats weighing 225-300 grams were anesthetized with methohexital (30 mg/kg, i.p.) and catheters were implanted into the femoral artery and vein. The catheters were tunneled subcutaneously to exit dorsally, posterior to the head and between the scapulae. The catheters were filled with heparin (1000 units/ml of saline). The rats were returned to their cage and allowed regular rat chow and water ad libitum. After full recovery from surgery (3-4 days), rats were placed in Lucite holders and the arterial line was connected to a pressure transducer. Arterial pressure was recorded on a Gould polygraph (mmHg). Angiotensin II was administered as a 30 ng/kg bolus via the venous catheter delivered in a 50 μl volume with a 0.2 ml saline flush. The pressor response in mm Hg was measured by the difference from pre-injection arterial pressure to the maximum pressure achieved. The AII injection was repeated every 10 minutes until three consecutive injections yielded responses within 4 mmHg of each other. These three responses were then averaged and represented the control response to AII. The test compound was suspended in 0.5% methylcellulose in water and was administered by gavage. The volume administered was 2 ml/kg body weight. The standard dose was 3 mg/kg. Angiotensin II bolus injections were given at 30, 45, 60, 75, 120, 150, and 180 minutes after gavage. The pressor response to AII was measured at each time point. The rats were then returned to their cage for future testing. A minimum of 3 days was allowed between tests. Percent inhibition was calculated for each time point following gavage by the following formula: [(Control Response−Response at time point)/Control Response]×100.

[1] = biological target: smooth muscle angiotensin II receptor; test: Assay A: Angiotensin II Binding Activity (125I-angiotensin II displacement, rat uterine membrane preparation); details: 50% displacement of specifically bound 125I-AII, rat uterine membranes, 25° C., 60 min
Procedure: Assay A: Angiotensin II Binding Activity
Compounds of the invention were tested for ability to bind to the smooth muscle angiotensin II receptor using a rat uterine membrane preparation. […] Other chemicals were obtained from Sigma Chemical Co. This assay was carried out according to the method of Douglas et al [Endocrinology, 106, 120-124 (1980)]. Rat uterine membranes were prepared from fresh tissue. All procedures were carried out at 4° C. Uteri were stripped of fat and homogenized in phosphate-buffered saline at pH 7.4 containing 5 mM EDTA. The homogenate was centrifuged at 1500×g for 20 min., and the supernatant was recentrifuged at 100,000×g for 60 min. The pellet was resuspended in buffer consisting of 2 mM EDTA and 50 mM Tris-HCl (pH 7.5) to a final protein concentration of 4 mg/ml. Assay tubes were charged with 0.25 ml of a solution containing 5 mM MgCl2, 2 mM EDTA, 0.5% bovine serum albumin, 50 mM Tris-HCl, pH 7.5 and […] (approximately 10^5 cpm) in the absence or in the presence of unlabelled ligand. The reaction was initiated by the addition of membrane protein and the mixture was incubated at 25° C. for 60 min. The incubation was terminated with ice-cold 50 mM Tris-HCl (pH 7.5) and the mixture was filtered to separate membrane-bound labelled peptide from the free ligand. The incubation tube and filter were washed with ice-cold buffer. Filters were assayed for radioactivity in a Micromedic gamma counter. Nonspecific binding was defined as binding in the presence of 10 μM of unlabelled AII. Specific binding was calculated as total binding minus nonspecific binding. […] Binding data were analyzed by a nonlinear least-squares curve fitting program.

[2] = first value of the pair (aorta rings from two rabbits)
[3] = second value of the pair (aorta rings from two rabbits)

SMILES	Kb (rabbit aortic rings; [2])	Kb (rabbit aortic rings; [3])	Assay C Duration (pressor response to AII)	inhibition in vivo at 3 mg/kg (pressor response to AII)	melting point	pIC50 [1]
CCCCc1cn(CCC(C)C)c(=O)n1Cc1ccc(-c2ccccc2-c2nnn[nH]2)nc1 [Example 14, 1-isopentyl-4-butyl-1,3-dihydro-3-[[6-[2-(1H-tetrazol-5-yl)phenyl]-3-pyridinyl]methyl]-2H-imidazol-2-one]	1.74 nM	2.29 nM	>180 min	35%	168.5 to 170 °C	8.12
CCCCc1cn(CCC2CC2)c(=O)n1Cc1ccc(-c2ccccc2-c2nnn[nH]2)nc1 [Example 22, 1-(2-cyclopropylethyl)-4-butyl 1,3-dihydro3-[[6-[2-(1H-tetrazol-5-yl)phenyl]-3-pyridinyl]methyl]-2H-imidazol-2-one]	1.78 nM	1.29 nM	>180 min	30%	182 to 183 °C	8.27
CCCCc1cn(CCc2cccs2)c(=O)n1Cc1ccc(-c2ccccc2-c2nnn[nH]2)nc1 [Example 25, 1-[2-(2-thienyl)ethyl]-4-butyl-1,3-dihydro-3-[[6-[2-(1H-tetrazol-5-yl)phenyl]-3-pyridinyl]methyl]-2H-imidazol-2-one]	0.389 nM	0.692 nM	>180 min	25%	137 to 138 °C	8.30
CCCCc1cn(CCCC)c(=O)n1Cc1ccc(-c2ccccc2-c2nnn[nH]2)nc1 [Example 1, 1,4-dibutyl-1,3-dihydro-3-[[6-[2-(1H-tetrazol-5-yl)phenyl]-3-pyridinyl]methyl]-2H-imidazol-2-one]	1.51 nM	2.95 nM	>180 min	50%	170 to 171 °C	8.19
CCCCc1cn(-c2ccccc2Cl)c(=O)n1Cc1ccc(-c2ccccc2-c2nnn[nH]2)nc1 [Example 32, 1-(2-chlorophenyl)-4-butyl-1,3-dihydro-3-[[6-[2-(1H-tetrazol-5-yl)phenyl]-3-pyridinyl]methyl]-2H-imidazol-2-one]	1.58 nM	0.912 nM	>180 min	50%	81 to 83 °C	8.27
CCCCCn1cc(CCCC)n(Cc2ccc(-c3ccccc3-c3nnn[nH]3)nc2)c1=O [Example 15, 1-pentyl-4-butyl-1,3-dihydro-3-[[6-[2-(1H-tetrazol-5-yl)phenyl]-3-pyridinyl]methyl]-2H-imidazol-2-one]	1.62 nM	1.41 nM	>180 min	60%	162 to 164 °C	8.00
CCCCc1cn(CC(CC)CC)c(=O)n1Cc1ccc(-c2ccccc2-c2nnn[nH]2)nc1 [Example 20, 1-(2-ethylbutyl)-4-butyl-1,3-dihydro-3-[[6-[2-(1H-tetrazol-5-yl)phenyl]-3-pyridinyl]methyl]-2H-imidazol-2-one]	0.676 nM	1.38 nM	>180 min	75%	174 to 176 °C (dec.)	7.80
CCCCc1cn(CC2CCCC2)c(=O)n1Cc1ccc(-c2ccccc2-c2nnn[nH]2)nc1 [Example 24, 1-cyclopentylmethyl-4-butyl-1,3-dihydro-3-[[6-[2-(1H-tetrazol-5-yl)phenyl]-3-pyridinyl]methyl]-2H-imidazol-2-one]	0.646 nM	2.04 nM	>180 min	50%	204 °C (dec.)	7.66
